ChEMBL document CHEMBL5696442, “Discovery of type II inhibitors of TGFβ-activated kinase 1 (TAK1) and mitogen-activated protein kinase kinase kinase kinase 2 (MAP4K2)” (J Med Chem, 2015)
Calls of active or inactive are those of the source. The calls are words filed in the database; no cut-off is given here.

Assays:
[1] = tested on: Tyrosine-protein kinase ABL1 (Homo sapiens), P00519 [Q252H]; experiment: Inhibition of ABL1 Q252H mutant (unknown origin) at 10 uM by Ambit Kinomescan binding assay relative to control
[2] = molecular target: Serine/threonine-protein kinase DCLK1 (Homo sapiens) (UniProt O15075); experiment: Inhibition of DCAMKL1 (unknown origin) at 10 uM by Ambit Kinomescan binding assay
Serine/threonine-protein kinase DCLK1 (Homo sapiens), sequence (O15075 whole entry): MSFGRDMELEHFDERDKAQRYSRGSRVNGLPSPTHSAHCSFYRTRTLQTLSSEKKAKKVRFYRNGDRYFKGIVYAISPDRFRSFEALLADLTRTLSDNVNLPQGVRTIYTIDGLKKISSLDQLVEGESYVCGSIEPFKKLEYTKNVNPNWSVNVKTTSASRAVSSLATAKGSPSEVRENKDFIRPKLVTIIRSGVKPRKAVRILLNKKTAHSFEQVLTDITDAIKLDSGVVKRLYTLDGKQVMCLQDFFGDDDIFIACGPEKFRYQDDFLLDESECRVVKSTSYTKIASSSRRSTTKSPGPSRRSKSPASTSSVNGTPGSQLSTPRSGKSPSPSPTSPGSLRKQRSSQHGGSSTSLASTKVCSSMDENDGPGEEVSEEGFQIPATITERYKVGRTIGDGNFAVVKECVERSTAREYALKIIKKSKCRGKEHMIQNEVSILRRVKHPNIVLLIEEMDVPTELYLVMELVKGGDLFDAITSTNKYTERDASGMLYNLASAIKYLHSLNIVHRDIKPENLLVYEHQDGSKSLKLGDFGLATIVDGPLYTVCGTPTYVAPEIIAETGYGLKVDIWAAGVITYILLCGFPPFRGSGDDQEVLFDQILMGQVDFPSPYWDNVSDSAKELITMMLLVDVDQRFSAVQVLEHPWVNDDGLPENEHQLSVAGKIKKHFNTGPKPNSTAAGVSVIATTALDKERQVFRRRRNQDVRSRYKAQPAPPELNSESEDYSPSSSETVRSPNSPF

[3] = molecular target: RAC-gamma serine/threonine-protein kinase (Homo sapiens) (UniProt Q9Y243); experiment: Inhibition of AKT3 (unknown origin) at 10 uM by Ambit Kinomescan binding assay
[4] = molecular target: Microtubule-associated serine/threonine-protein kinase 2 (Homo sapiens) (UniProt Q6P0Q8); experiment: Inhibition of MAST2 Lys2 labeling site in human A-375 cells at 0.5 uM by KiNativ Profiling analysis relative to control; type: cell-based
[5] = molecular target: Dual specificity protein kinase CLK2 (Homo sapiens) (UniProt P49760); experiment: Inhibition of CLK2 (unknown origin) at 10 uM by Ambit Kinomescan binding assay
[6] = molecular target: Serine/threonine-protein kinase Nek6 (Homo sapiens) (UniProt Q9HC98); experiment: Inhibition of NEK6 ACT labeling site in human Huh-7 cells at 1 uM by KiNativ Profiling analysis relative to control; type: cell-based
[7] = molecular target: Calcium/calmodulin-dependent protein kinase type II subunit beta (Homo sapiens) (UniProt Q13554); experiment: Inhibition of CAMK2B (unknown origin) at 10 uM by Ambit Kinomescan binding assay
Calcium/calmodulin-dependent protein kinase type II subunit beta (Homo sapiens), sequence (Q13554 whole entry): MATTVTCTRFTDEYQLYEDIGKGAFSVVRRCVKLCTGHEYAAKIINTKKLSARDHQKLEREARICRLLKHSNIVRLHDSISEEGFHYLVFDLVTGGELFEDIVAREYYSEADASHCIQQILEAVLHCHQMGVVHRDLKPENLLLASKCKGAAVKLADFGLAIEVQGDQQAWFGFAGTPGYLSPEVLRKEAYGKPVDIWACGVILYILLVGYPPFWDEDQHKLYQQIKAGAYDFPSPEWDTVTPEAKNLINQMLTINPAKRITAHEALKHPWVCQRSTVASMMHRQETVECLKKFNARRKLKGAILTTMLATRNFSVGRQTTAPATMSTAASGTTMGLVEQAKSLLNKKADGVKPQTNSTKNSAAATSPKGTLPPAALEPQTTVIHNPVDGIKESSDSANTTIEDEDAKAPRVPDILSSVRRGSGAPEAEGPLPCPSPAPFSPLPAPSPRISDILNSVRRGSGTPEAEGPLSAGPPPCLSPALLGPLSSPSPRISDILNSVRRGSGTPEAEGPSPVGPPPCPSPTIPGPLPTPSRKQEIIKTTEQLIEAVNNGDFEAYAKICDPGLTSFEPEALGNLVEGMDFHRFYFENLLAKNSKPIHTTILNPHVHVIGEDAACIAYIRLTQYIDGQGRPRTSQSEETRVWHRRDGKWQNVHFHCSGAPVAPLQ

[8] = molecular target: Mitogen-activated protein kinase kinase kinase kinase 4 (Homo sapiens, UniProt O95819); experiment: Inhibition of MAP4K4 (unknown origin) at 10 uM by Ambit Kinomescan binding assay relative to control
Mitogen-activated protein kinase kinase kinase kinase 4, sequence (O95819 2-1239 limits assumed): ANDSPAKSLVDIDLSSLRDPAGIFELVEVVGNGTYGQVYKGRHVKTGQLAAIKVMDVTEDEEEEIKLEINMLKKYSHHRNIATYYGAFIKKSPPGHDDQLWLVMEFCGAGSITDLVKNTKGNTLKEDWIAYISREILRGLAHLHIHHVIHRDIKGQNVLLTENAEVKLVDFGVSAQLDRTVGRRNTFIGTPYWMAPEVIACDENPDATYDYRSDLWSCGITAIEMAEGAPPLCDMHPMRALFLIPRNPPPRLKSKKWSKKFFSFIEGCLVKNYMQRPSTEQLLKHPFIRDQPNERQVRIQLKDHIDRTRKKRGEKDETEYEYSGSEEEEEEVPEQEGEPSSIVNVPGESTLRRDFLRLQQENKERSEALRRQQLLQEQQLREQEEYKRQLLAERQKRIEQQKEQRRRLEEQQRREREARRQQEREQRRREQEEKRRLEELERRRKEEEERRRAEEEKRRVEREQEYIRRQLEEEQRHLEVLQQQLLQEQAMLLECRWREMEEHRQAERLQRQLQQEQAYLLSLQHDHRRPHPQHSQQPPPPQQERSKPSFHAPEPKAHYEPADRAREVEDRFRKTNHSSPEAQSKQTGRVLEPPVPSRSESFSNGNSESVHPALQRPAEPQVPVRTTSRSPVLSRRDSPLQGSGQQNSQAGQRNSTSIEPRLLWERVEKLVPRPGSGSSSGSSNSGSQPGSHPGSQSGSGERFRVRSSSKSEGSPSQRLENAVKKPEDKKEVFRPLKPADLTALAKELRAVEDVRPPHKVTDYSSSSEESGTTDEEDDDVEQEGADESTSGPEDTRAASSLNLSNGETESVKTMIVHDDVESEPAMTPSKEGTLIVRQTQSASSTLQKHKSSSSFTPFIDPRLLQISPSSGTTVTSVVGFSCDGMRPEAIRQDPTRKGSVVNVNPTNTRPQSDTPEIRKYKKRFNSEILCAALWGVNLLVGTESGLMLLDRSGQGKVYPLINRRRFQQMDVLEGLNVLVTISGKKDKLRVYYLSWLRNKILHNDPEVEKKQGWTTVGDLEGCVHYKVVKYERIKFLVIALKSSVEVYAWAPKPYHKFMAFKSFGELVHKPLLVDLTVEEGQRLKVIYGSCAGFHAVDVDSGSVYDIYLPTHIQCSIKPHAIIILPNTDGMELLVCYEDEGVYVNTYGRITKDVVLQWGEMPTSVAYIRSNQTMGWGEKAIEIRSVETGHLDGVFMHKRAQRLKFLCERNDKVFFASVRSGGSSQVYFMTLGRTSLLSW

[9] = molecular target: Calcium/calmodulin-dependent protein kinase type IV (Homo sapiens) (UniProt Q16566); experiment: Inhibition of CAMK4 (unknown origin) at 1 uM by Ambit Kinomescan binding assay relative to control; values are per cent of control
[10] = molecular target: Serine/threonine-protein kinase PLK1 (Homo sapiens) (UniProt P53350); experiment: Inhibition of PLK1 Lys2 labeling site in human A-375 cells at 0.5 uM by KiNativ Profiling analysis relative to control; type: cell-based
[11] = molecular target: Cyclin-dependent kinase-like 2 (Homo sapiens) (UniProt Q92772); experiment: Inhibition of CDKL2 (unknown origin) at 1 uM by Ambit Kinomescan binding assay relative to control; values are per cent of control
[12] = molecular target: Casein kinase I isoform epsilon (Homo sapiens) (UniProt P49674); experiment: Inhibition of CK1epsilon Lys2 labeling site in human A-375 cells at 5 uM by KiNativ Profiling analysis relative to control; type: cell-based
Casein kinase I isoform epsilon (Homo sapiens), sequence (P49674 whole entry, looked up, canonical isoform): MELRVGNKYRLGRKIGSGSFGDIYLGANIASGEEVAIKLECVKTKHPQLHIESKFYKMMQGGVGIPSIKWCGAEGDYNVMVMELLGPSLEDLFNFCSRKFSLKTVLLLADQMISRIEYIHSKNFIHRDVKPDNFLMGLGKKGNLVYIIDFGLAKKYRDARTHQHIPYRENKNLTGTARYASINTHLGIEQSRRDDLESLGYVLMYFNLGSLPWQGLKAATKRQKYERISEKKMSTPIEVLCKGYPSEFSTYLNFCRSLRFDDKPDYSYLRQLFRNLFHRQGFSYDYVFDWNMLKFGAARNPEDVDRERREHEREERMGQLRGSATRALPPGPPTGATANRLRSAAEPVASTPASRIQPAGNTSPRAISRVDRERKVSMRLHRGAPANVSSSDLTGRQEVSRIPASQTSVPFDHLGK

[13] = molecular target: Cyclin-dependent kinase-like 5 (Homo sapiens) (UniProt O76039); experiment: Inhibition of CDKL5 (unknown origin) at 1 uM by Ambit Kinomescan binding assay relative to control; values are per cent of control
Cyclin-dependent kinase-like 5 (Homo sapiens), sequence (O76039 whole entry, the tested form may be a part): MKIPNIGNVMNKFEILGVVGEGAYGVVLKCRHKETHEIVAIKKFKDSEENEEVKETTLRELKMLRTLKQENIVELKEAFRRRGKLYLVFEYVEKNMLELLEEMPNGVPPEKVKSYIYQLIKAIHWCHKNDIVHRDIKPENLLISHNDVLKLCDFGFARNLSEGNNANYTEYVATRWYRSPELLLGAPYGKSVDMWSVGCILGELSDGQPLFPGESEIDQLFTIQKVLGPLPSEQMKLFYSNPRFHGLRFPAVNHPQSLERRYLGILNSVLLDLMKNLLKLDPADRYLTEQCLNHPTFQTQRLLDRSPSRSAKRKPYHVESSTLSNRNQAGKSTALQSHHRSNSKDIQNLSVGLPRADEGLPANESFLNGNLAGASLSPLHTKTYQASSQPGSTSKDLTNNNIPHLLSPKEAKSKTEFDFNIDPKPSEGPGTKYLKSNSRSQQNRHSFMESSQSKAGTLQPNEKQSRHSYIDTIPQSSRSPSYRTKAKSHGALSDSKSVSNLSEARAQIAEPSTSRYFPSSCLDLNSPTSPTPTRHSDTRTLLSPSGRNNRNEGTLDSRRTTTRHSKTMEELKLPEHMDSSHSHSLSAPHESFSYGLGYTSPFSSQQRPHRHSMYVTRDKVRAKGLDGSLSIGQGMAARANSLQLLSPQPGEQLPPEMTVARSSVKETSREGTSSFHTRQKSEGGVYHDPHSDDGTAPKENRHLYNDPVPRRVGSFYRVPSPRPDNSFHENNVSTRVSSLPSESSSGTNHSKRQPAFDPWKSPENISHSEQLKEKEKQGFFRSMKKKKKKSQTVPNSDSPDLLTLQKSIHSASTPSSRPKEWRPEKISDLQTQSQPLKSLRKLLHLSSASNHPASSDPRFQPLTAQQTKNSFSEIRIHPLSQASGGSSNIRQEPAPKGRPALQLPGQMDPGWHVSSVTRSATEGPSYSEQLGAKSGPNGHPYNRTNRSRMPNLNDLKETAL

[14] = molecular target: Ribosomal protein S6 kinase delta-1 (Homo sapiens) (UniProt Q96S38); experiment: Inhibition of RSKL1 domain1 Protein Kinase Domain labeling site in human Huh-7 cell lysate at 1 uM by KiNativ Profiling analysis relative to control; type: subcellular
Ribosomal protein S6 kinase delta-1 (Homo sapiens), sequence (Q96S38 whole entry, the tested form may be a part): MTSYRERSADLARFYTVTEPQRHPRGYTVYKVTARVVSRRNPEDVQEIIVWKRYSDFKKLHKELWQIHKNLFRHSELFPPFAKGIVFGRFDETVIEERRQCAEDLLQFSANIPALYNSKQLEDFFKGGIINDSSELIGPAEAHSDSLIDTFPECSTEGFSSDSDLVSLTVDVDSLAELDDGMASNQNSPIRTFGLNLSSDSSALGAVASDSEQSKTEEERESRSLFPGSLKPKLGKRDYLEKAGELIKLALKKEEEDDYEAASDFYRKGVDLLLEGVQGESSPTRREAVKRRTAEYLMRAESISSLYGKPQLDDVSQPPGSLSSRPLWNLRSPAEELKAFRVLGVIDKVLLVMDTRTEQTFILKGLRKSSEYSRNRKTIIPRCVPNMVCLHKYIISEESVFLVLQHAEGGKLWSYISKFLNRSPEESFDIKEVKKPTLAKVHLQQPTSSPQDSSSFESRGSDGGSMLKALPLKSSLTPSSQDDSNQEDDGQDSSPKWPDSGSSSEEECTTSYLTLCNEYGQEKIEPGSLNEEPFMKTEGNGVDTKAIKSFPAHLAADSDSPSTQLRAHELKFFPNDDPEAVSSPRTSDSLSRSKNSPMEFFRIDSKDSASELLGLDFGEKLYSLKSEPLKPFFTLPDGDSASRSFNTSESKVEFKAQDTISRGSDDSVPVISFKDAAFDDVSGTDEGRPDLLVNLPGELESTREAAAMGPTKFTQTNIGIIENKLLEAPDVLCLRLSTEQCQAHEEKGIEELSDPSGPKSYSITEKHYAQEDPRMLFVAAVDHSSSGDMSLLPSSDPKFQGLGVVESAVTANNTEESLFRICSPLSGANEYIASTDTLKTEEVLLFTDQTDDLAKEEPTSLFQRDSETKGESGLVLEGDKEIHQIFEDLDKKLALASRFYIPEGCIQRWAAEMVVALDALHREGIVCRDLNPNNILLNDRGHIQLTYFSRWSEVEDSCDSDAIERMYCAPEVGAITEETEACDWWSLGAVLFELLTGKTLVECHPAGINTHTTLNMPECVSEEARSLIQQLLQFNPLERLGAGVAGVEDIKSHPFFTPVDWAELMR

[15] = molecular target: T1, Serine/threonine-protein kinase TAO2 (Homo sapiens) (UniProt Q9UL54); experiment: Inhibition of TAO2 Lys2 labeling site in human Huh-7 cell lysate at 1 uM by KiNativ Profiling analysis relative to control; type: subcellular
T1 sequence (whole entry): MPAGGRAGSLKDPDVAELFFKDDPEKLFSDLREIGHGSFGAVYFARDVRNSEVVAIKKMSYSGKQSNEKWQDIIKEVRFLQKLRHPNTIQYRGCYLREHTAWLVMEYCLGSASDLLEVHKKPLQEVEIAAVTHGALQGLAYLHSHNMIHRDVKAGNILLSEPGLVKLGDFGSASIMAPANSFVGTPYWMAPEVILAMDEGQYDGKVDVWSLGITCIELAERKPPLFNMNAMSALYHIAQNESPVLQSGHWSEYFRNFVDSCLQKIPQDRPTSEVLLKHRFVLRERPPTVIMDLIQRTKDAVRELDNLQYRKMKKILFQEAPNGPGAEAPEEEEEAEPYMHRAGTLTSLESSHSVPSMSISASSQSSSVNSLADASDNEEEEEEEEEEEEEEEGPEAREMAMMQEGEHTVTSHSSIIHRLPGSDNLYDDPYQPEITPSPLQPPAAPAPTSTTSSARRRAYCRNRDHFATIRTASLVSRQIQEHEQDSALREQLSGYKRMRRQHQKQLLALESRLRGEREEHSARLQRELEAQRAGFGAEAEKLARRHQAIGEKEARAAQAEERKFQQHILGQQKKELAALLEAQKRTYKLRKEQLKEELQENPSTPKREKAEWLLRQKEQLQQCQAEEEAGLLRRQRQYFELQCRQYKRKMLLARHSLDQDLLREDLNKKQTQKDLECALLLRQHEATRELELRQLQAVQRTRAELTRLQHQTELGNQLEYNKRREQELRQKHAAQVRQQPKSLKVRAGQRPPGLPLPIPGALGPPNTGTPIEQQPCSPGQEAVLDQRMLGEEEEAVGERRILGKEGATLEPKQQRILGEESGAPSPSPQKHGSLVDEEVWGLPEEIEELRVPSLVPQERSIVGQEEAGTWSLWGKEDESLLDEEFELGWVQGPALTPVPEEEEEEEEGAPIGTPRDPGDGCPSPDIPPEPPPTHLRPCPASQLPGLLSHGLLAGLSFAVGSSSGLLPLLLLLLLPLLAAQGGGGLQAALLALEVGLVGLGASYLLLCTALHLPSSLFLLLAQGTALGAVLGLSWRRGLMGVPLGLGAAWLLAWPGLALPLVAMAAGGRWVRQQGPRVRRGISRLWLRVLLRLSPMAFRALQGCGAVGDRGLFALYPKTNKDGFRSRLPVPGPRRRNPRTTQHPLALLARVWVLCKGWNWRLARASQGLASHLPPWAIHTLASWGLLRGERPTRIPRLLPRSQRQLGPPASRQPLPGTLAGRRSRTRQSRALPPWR

[16] = molecular target: Cyclin-dependent kinase 8 (Homo sapiens) (UniProt P49336); experiment: Inhibition of CDK8 Lys2 labeling site in human Huh-7 cells at 1 uM by KiNativ Profiling analysis relative to control; type: cell-based
[17] = molecular target: Serine/threonine-protein kinase WNK2 (Homo sapiens) (UniProt Q9Y3S1); experiment: Inhibition of Wnk2 ACT labeling site in human Huh-7 cell lysate at 1 uM by KiNativ Profiling analysis relative to control; type: subcellular

Structure (SMILES): CCN1CCN(Cc2ccc(NC(=O)c3ccc(C)c(Oc4ccnc5[nH]ccc45)c3)cc2C(F)(F)F)CC1
- inhibition [1]: 0.4%
- inhibition [2]: inactive
- inhibition [3]: inactive
- inhibition [4]: 16.1%
- inhibition [5]: inactive
- inhibition [6]: 15.5%
- inhibition [7]: inactive
- inhibition [8]: 0%

Structure (SMILES): CCN1CCN(Cc2ccc(NC(=O)c3ccc(C)c(/C=C/c4cnc5[nH]ccc5c4OC)c3)cc2C(F)(F)F)CC1
- residual activity [9]: 100%
- inhibition [10]: 13.2%
- residual activity [11]: 4.2%
- inhibition [12]: 1.4%
- residual activity [13]: 100%

Structure (SMILES): CNc1cc(Oc2cc(C(=O)Nc3cc(N4CCN(C)CC4)cc(C(F)(F)F)c3)ccc2C)ncn1
- inhibition [14]: 15.7%
- inhibition [15]: 7.5%
- inhibition [16]: 25.8%
- inhibition [17]: -6.9%
